Measured values taken from patent publication US9884806B2, “Cyclic vinylogous amides as bromodomain inhibitors” (ICAHN SCHOOL OF MEDICINE AT MOUNT SINAI, priority 2013, dated 2018).

Legend:
BRD4_2 = molecular target: T1, BRD4_2 (Homo sapiens, UniProt O60885); assay: Fluorescence anisotropy binding assay (competition with FITC-labeled MS417 probe), BRD4_2; conditions: FITC-MS417 probe 80 nM, PBS pH 7.4, 1 hour, 25° C.
T1 construct: contains two tandem bromodomains (BrD1 and BrD2)

[1] = molecular target: T2, first bromodomain (BrD1) of human BRD4 (Homo sapiens, UniProt O60885); assay: Fluorescence anisotropy binding assay (competition with FITC-labeled MS417 probe); conditions: FITC-MS417 probe 80 nM, PBS pH 7.4, 1 hour, 25° C., read-out: BRD4_1 IC50
T2 construct: the first bromodomain (BrD1) of human BRD4; poly-His (cleaved yes); made in house
In short: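 BRD4 BrD1 (His tag removed by thrombin) at 0.25 to 1 μM competed against 80 nM FITC-labeled MS417 in PBS pH 7.4. Anisotropy read after 1 hour at 25° C. Ki derived from fitted IC50 by Nikolovska-Coleska-corrected Cheng-Prusoff equation, one-site competitive model.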

For `CC1=C(NC2CCN(C(=O)OC(C)(C)C)CC2)CCC1=O` (hydrate or solvate) [Example 01-32, tert-Butyl 4-((2-methyl-3-oxocyclopent-1-en-1-yl)amino)piperidine-1-carboxylate], the melting point was 189 to 191 °C.

For `CC1=C(N[C@H]2CC[C@H](C(=O)O)CC2)CCC1=O` (hydrate or solvate) [Example 01-33, trans-(1R,4R)-4-((2-methyl-3-oxocyclopent-1-en-1-yl)amino)cyclo6hexane-carboxylic acid], the melting point was 236 to 238 °C.

`CC1=C(N[C@H]2CC[C@@H](C(=O)O)CC2)CCC1=O` (hydrate or solvate) [Example 01-34, cis-(1S,4S)-4-((2-methyl-3-oxocyclopent-1-en-1-yl)amino)cyclohexanecarboxylic acid] gave a melting point of 233 to 235 °C.

`CC1=C(Nc2cccc(S(N)(=O)=O)c2)CCC1=O` (hydrate or solvate) [Example 01-45, 3((2-methyl-3-oxocyclopent-1-en-1-yl)amino)benzenesulfonamide] gave a melting point of 223 to 225 °C.

For `CC1=C(Nc2cc(S(N)(=O)=O)ccc2Cl)CCC1=O` (hydrate or solvate) [Example 01-46, 4-chloro-3-((2-methyl-3-oxocyclopent-1-en-1-yl)amino)benzene-sulfonamide], the melting point was 223 to 225 °C.

For `CC1=C(Nc2cccc(C(=O)O)c2)CCC1=O` [Example 01-03, 3((2-methyl-3-oxocyclopent-1-en-1-yl)amino)benzoic acid], the melting point was 236 to 238 °C.

`COC(=O)c1cccc(NC2=C(C)C(=O)CC2)c1` [Example 01-04, methyl 3-((2-methyl-3-oxocyclopent-1-en-1-yl)amino)benzoate] showed a melting point of 133 to 135 °C.

Work on `CC(=O)c1ccc(NC2=C(C)C(=O)CC2)cc1` [Example 01-09, 3-((4-acetylphenyl)amino)-2-methylcyclopent-2-enone] yielded a melting point of 270 to 273 °C.

Work on `CC1=C(Nc2ccc(C(=O)O)c(Cl)c2)CCC1=O` [Example 01-10, 2-chloro-4((2-methyl-3-oxocyclopent-1-en-1-yl)amino)benzoic acid] yielded an IC50 (BRD4_2) of over 10 µM, a melting point of 239 to 241 °C and an IC50 [1] of over 10 µM.

`COc1cc(C(=O)O)ccc1NC1=C(C)C(=O)CC1` [Example 01-12, 3-methoxy-4-((2-methyl-3-oxocyclopent-1-en-1-yl)amino)benzoic acid] showed an IC50 (BRD4_2) of 1 to 10 µM, a melting point of 231 to 234 °C and an IC50 [1] of 1 to 10 µM.

For `COC(=O)c1ccc(NC2=C(C)C(=O)CC2)cc1OC` [Example 01-13, methyl 2-methoxy-4-((2-methyl-3-oxocyclopent-1-en-1-yl)amino)benzoate], the IC50 (BRD4_2) was 1 to 10 µM, the melting point was 193 to 196 °C and the IC50 [1] was 1 to 10 µM.

Molecule `CC1=C(Nc2ccc(C(=O)O)cc2C)CCC1=O` [Example 01-14, 3-methyl-4-((2-methyl-3-oxocyclopent-1-en-1-yl)amino)benzoic acid] has an IC50 (BRD4_2) of 1 to 10 µM, a melting point of 233 to 236 °C and an IC50 [1] of 1 to 10 µM.

In the case of `CC1=C(Nc2ccc(C(=O)O)c(C)c2)CCC1=O` [Example 01-16, 2-methyl-4-((2-methyl-3-oxocyclopent-1-en-1-yl)amino)benzoic acid], the IC50 (BRD4_2) is reported as over 10 µM, the melting point is reported as 213 to 216 °C and the IC50 [1] is reported as over 10 µM.

Work on `CC1=C(Nc2ccccc2C(N)=O)CCC1=O` [Example 01-18, 2-((2-methyl-3-oxocyclopent-1-en-1-yl)amino)benzamide] yielded an IC50 (BRD4_2) of over 10 µM, a melting point of 235 to 238 °C and an IC50 [1] of over 10 µM.

In the case of `COC(=O)c1cc(Cl)ccc1NC1=C(C)C(=O)CC1` [Example 01-20, methyl 5-chloro-2-((2-methyl-3-oxocyclopent-1-en-1-yl)amino)benzoate], the IC50 (BRD4_2) is reported as over 10 µM, the melting point is reported as 162 to 165 °C and the IC50 [1] is reported as over 10 µM.

`COC(=O)c1ccc(NC2=C(C)C(=O)CC2)c(F)c1` [Example 01-21, methyl 3-fluoro-4((2-methyl-3-oxocyclopent-1-en-1-yl)amino)benzoate] gave an IC50 (BRD4_2) of over 10 µM, a melting point of 198 to 201 °C and an IC50 [1] of 1 to 10 µM.

Work on `COC(=O)c1ccc(NC2=C(C)C(=O)CC2)c(Br)c1` [Example 01-22, methyl 3-bromo-4((2-methyl-3-oxocyclopent-1-en-1-yl)amino)benzoate] yielded an IC50 (BRD4_2) of 1 to 10 µM, a melting point of 155 to 158 °C and an IC50 [1] of 1 to 10 µM.

For `CC1=C(Nc2cccc(Cl)c2C(=O)O)CCC1=O` [Example 01-23, 2-chloro-6((2-methyl-3-oxocyclopent-1-en-1-yl)amino)benzoic acid], the IC50 (BRD4_2) was over 10 µM, the melting point was 277 to 280 °C and the IC50 [1] was over 10 µM.

`COC(=O)c1ccc(Cl)cc1NC1=C(C)C(=O)CC1` [Example 01-24, methyl 4-chloro-2-((2-methyl-3-oxocyclopent-1-en-1-yl)amino)benzoate] gave an IC50 (BRD4_2) of over 10 µM, a melting point of 167 to 170 °C and an IC50 [1] of 1 to 10 µM.

For `CC1=C(Nc2cc(C(=O)O)ccc2Cl)CCC1=O` [Example 01-25, 4-chloro-3((2-methyl-3-oxocyclopent-1-en-1-yl)amino)benzoic acid], the IC50 (BRD4_2) was over 10 µM, the melting point was 272 to 275 °C and the IC50 [1] was 1 to 10 µM.

`CC1=C(Nc2cccc3ccccc23)CCC1=O` [Example 01-26, 2-methyl-3-(naphthalen-1-ylamino)cyclopent-2-enone] gave an IC50 (BRD4_2) of 1 to 10 µM, a melting point of 166 to 168 °C and an IC50 [1] of 1 to 10 µM.

`CC1=C(Nc2ccc3ccccc3c2)CCC1=O` [Example 01-27, 2-methyl-3-(naphthalen-2-ylamino)cyclopent-2-enone] showed an IC50 (BRD4_2) of 1 to 10 µM, a melting point of 248 to 250 °C and an IC50 [1] of 1 to 10 µM.

Work on `CC1=C(Nc2ccccn2)CCC1=O` [Example 01-28, 2-methyl-3-(pyridin-2-ylamino)cyclopent-2-enone] yielded an IC50 (BRD4_2) of over 10 µM, a melting point of 163 to 165 °C and an IC50 [1] of over 10 µM.

Work on `CC1=C(Nc2cccnc2)CCC1=O` [Example 01-29, 2-methyl-3-(pyridin-3-ylamino)cyclopent-2-enone] yielded an IC50 (BRD4_2) of over 10 µM, a melting point of 133 to 135 °C and an IC50 [1] of over 10 µM.

In the case of `CC1=C(Nc2ccncc2)CCC1=O` [Example 01-30, 2-methyl-3-(pyridin-4-ylamino)cyclopent-2-enone], the IC50 (BRD4_2) is reported as 1 to 10 µM, the melting point is reported as 203 to 205 °C and the IC50 [1] is reported as 1 to 10 µM.

In the case of `CC1=C(Nc2ccc(C(N)=O)cc2)CCCC1=O` [Example 01-35, 4((2-methyl-3-oxocyclohex-1-en-1-yl)amino)benzamide], the IC50 (BRD4_2) is reported as 1 to 10 µM, the melting point is reported as 221 to 223 °C and the IC50 [1] is reported as 1 to 10 µM.

For `CC1=C(Nc2cccc(CC(=O)O)c2)CCCC1=O` [Example 01-37, 2-(3((2-methyl-3-oxocyclohex-1-en-1-yl)amino)phenyl)acetic acid], the IC50 (BRD4_2) was over 10 µM, the melting point was 203 to 207 °C and the IC50 [1] was over 10 µM.

`CC1=C(Nc2ccc(CC(=O)O)cc2)CCCC1=O` [Example 01-38, 2-(4((2-methyl-3-oxocyclohex-1-en-1-yl)amino)phenyl)acetic acid] showed a melting point of 215 to 219 °C.

`CC(=O)Nc1ccc(Cl)c(NC2=C(C)C(=O)CC2)c1` [Example 01-42, N-(4-chloro-3-((2-methyl-3-oxocyclopent-1-en-1-yl)amino)phenyl)-acetamide] gave an IC50 (BRD4_2) of 1 to 10 µM, a melting point of 265 to 268 °C and an IC50 [1] of under 1 µM.

`COC(=O)c1ccc(NC2=C(C)C(=O)CC2)c(I)c1` [Example 01-43, methyl 3-iodo-4-((2-methyl-3-oxocyclopent-1-en-1-yl)amino)benzoate] showed an IC50 (BRD4_2) of 1 to 10 µM, a melting point of 178 to 180 °C and an IC50 [1] of 1 to 10 µM.

`CC1=C(Nc2cccc(C(=O)O)c2Cl)CCC1=O` [Example 01-44, 2-chloro-3((2-methyl-3-oxocyclopent-1-en-1-yl)amino)benzoic acid] showed an IC50 (BRD4_2) of over 10 µM, a melting point of 230 to 232 °C and an IC50 [1] of 1 to 10 µM.

Work on `CC(=O)Nc1ccc(Cl)c(NC2=C(C)C(=O)CCC2)c1` [Example 01-47, N-(4-chloro-3-((2-methyl-3-oxocyclohex-1-en-1-yl)amino)phenyl)-acetamide] yielded a melting point of 234 to 236 °C.

Work on `CC1=C(Nc2ccc(C(=O)O)cc2)CCC1=O` [Example 02-01, 4((2-methyl-3-oxocyclopent-1-en-1-yl)amino)benzoic acid] yielded a melting point of 228 to 230 °C.

`CC1=C(Nc2ccc(C(=O)O)cc2Cl)CCC1=O` [Example 02-02, 3-chloro-4((2-methyl-3-oxocyclopent-1-en-1-yl)amino)benzoic acid] showed a melting point of 226 to 230 °C.

`COc1cc(NC2=C(C)C(=O)CC2)ccc1C(=O)O` [Example 02-03, 2-methoxy-4((2-methyl-3-oxocyclopent-1-en-1-yl)amino)benzoic acid] gave a melting point of 240 to 243 °C.

For `CC1=C(Nc2ccccc2C(=O)O)CCC1=O` [Example 02-04, 2-((2-methyl-3-oxocyclopent-1-en-1-yl)amino)benzoic acid], the melting point was 245 to 248 °C.

With `CC1=C(Nc2ccc(Cl)cc2C(=O)O)CCC1=O` [Example 02-05, 5-chloro-2-((2-methyl-3-oxocyclopent-1-en-1-yl)amino)benzoic acid] the melting point was 242 to 245 °C.

With `CC1=C(Nc2ccc(C(=O)O)cc2F)CCC1=O` [Example 02-06, 3-fluoro-4((2-methyl-3-oxocyclopent-1-en-1-yl)amino)benzoic acid] the melting point was 210 to 213 °C.

In the case of `CC1=C(Nc2ccc(C(=O)O)cc2Br)CCC1=O` [Example 02-07, 3-bromo-4-((2-methyl-3-oxocyclopent-1-en-1-yl)amino)benzoic acid], the melting point is reported as 246 to 248 °C.

`CC1=C(Nc2ccc(C(=O)O)cc2I)CCC1=O` [Example 02-08, 3-iodo-4-((2-methyl-3-oxocyclopent-1-en-1-yl)amino)benzoic acid] gave a melting point of 263 to 264 °C.
